# Measurements from patent US11045416B2, “Topical compositions comprising Pichia anomala and retinol” (Johnson & Johnson Consumer Inc., priority 2018, dated 2021).
# Test system: Heparin Binding Epidermal Growth Factor (HBEGF)
# Assay: HBEGF gene expression in human skin explants by qPCR (Example 3)
# Format: cell-based
# Settings: 4 μL topically, 48 hours; observed minus untreated (100)
# Experimental: First, abdominal skin samples were obtained from human adults undergoing abdominoplasty surgery. Informed consent was obtained from each patient, and all experimental steps were approved by an institutional review board (IRB). Subcutaneous fat was carefully removed and skin biopsies of 0.93 cm^2 were prepared under sterile conditions and acclimated in keratinocyte growth media sold under the tradename KGM-GOLD BULLETKIT (Lonza, Walkersville, Md.), with 10% antibiotics under a 5% CO2 humidified atmosphere overnight.
# The skin explants were treated topically with 4 μL of the various formulations and left to incubate for 48 hours. An untreated explant sample was used as the control. In the case of combined application of Composition 5 and the 5% solution of Pichia anomala extract, 4 μL of each were applied. At the end of the 48 h, epidermis and dermis were separated by heating. […]
# Gene expression assays were performed by real time quantitative polymerase chain reaction (PCR) based on the SyBR green method. qPCR was run on a real time PCR system sold under the tradename CFX96 TOUCH (Bio-Rad Laboratories, Inc., Hercules, Calif.). […] The fold changes were calculated in comparison to the untreated controls and ANOVA statistical test was performed.
structure (smiles),measurement,value
"CC1=C(/C=C/C(C)=C/C=C/C(C)=C/CO)C(C)(C)CCC1 [retinol, Retinol]","HBEGF expression, Observed Normalized to untreated",291
